Results reported in US8642657B2 (Gruenenthal GmbH, priority 2003, dated 2014).

How the values were obtained:
rat VR1 [1] = target: T1, rat VR1 (Rattus norvegicus, UniProt O35433); experiment: 45Ca2+-uptake assay in CHO/VR1 cells, antagonism of capsaicin-stimulated uptake; assay type: cell-based; details: 45Ca2+ uptake stimulated by 50 nM capsaicin
T1 construct: expressed in transfected cells
Description: (§1) Initial stocks were dissolved in DMSO. For the binding assays, compounds were diluted in with DPBS with Ca^2+ and Mg^2+ and 0.25 mg/mL bovine serum albumin. For the calcium uptake assays, compounds were diluted in DMEM with 0.25 mg/mL bovine serum albumin.
Molecules were characterized to determine whether they were full agonists, partial agonists, or antagonists. For studies of ^45Ca^2+ uptake by CHO/VR1 cells (Tet-off cells), the cells were plated in 24-well plates to yield a cell density 20-40% of that required to produce confluence. The next day the medium was changed to remove the tetracycline and induce VR1 expression. Experiments were performed approximately 36-40 hours after induction. For ^45Ca^2+ uptake assay, cells were incubated for 5 min at 37° C. in a total volume of 400 μL of serum free DMEM (containing 1.8 mM CaCl2) in the presence of 0.25 mg/mL BSA (Sigma), 1 μCi/mL ^45Ca^2+ (5-30 Ci/g from ICN, CA), and increasing concentrations of the compound to be tested. Immediately after the incubation, extracellular ^45Ca^2+ was removed by washing the cells three times with cold DPBS (containing 1.8 mM CaCl2). Then 400 μl RIPA buffer (50 mM Tris pH 7.4; 150 mM NaCl; 1% Triton X-100; 0.1% SDS; 1% sodium deoxycholate) was added to each well in order to lyse the cells. Plates were shaken slowly for 20 min; then 306 μL of cell lysate was transferred from each well into a scintillation vial and radioactivity was determined by scintillation counting. For each data point in each experiment, four wells were assayed. Data from these experiments were analyzed by computer fit to the Hill equation. At least 3 separate experiments were carried out for each compound. In order to determine antagonist activity, studies were performed in exactly the same fashion with the exception that 50 nM capsaicin was added to the assay mixture to stimulate ^45Ca^2+ uptake.

rat VR1 [2] = target: T1, rat VR1; experiment: [3H]resiniferatoxin (RTX) competition binding assay, VR1-transfected CHO cells
Description: The pUHG102 VR1 plasmid was transfected into CHO cells containing the pTet Off regulatory plasmid (Clontech). In these cells, expression of the VR1 is repressed in the presence of tetracycline but is induced upon removal of the antibiotic. Stable clones were isolated in culture medium containing puromycin (10 μg/mL) and maintained in HAM F12 medium supplemented with tetracycline (1 μg/mL), 5 μg/ml geniticin, 25 mM HEPES, 10% FBS. Cells utilized for assays were grown in culture medium without antibiotic for 48 h before use. Cells were seeded in T75 cell culture flasks in media without antibiotics and grown to approximately 90% confluence. The flasks were then washed with PBS and harvested in 0.25% trypsin, 1 mM EDTA. The cells were pelleted by gentle centrifugation and stored at −20° C. until assay.
Competition Binding Assay
Binding studies with [^3H]resiniferatoxin (RTX) were carried out as described previously with minor modifications (Szallasi et al., 1992). Binding assay mixtures were set up on ice and contained 50-100 pM [^3H]RTX, various concentrations of competing ligands, 0.25 mg/mL BSA (Cohn fraction V), and about 5×10^5 VR1-transfected cells. The final volume was adjusted to 350 μL with DPBS with Ca^2+ and Mg^2+ and 0.25 mg/mL bovine serum albumin. Non-specific binding was determined in the presence of 100 nM nonradioactive RTX. The binding reaction was initiated by transferring the assay mixtures to a 37° C. water bath and was terminated after a 60 min incubation period by cooling the tubes on ice. To reduce non-specific binding, 200 μg/ml α-glycoprotein was added. Membrane-bound RTX was then separated from the free by pelleting the membranes in a Beckman 12 benchtop centrifuge (15 min, maximal velocity), the tips of the tubes containing the pellets were cut off, and the radioactivity was determined by scintillation counting. Equilibrium binding parameters (Ki and cooperativity) were determined by fitting the Hill equation to the measured values with the aid of the program MicroCal Origin 6.0.
as §1

[3] = competition with [3H]RTX, rat VR1 in CHO cells, read-out: Ki (nM) Binding Affinity

T1 sequence (O35433 whole entry): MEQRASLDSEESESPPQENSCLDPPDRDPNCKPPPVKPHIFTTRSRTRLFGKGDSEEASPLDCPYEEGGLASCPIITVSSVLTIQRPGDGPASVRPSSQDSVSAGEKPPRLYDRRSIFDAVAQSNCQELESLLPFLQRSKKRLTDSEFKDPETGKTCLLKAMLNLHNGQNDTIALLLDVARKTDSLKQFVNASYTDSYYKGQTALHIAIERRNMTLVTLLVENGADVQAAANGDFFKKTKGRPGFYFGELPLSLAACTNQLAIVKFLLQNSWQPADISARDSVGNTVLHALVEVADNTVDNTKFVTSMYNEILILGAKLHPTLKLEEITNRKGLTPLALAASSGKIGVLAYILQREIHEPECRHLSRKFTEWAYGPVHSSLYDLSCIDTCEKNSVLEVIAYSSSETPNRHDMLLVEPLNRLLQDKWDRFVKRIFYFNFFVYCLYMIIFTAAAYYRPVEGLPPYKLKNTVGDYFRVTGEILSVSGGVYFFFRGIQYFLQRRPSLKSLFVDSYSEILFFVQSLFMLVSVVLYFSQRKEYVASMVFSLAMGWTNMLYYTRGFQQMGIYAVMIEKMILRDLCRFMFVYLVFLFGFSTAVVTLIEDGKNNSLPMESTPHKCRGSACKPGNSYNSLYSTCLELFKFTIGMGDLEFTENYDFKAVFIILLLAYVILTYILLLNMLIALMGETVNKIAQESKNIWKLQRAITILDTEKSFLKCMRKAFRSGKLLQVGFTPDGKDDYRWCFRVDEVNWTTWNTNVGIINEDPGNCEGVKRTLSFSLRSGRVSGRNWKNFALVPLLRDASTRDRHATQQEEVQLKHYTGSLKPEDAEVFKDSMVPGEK

| Compound | Ki (rat VR1 [1]) [nM] | Ki (rat VR1 [2]) [nM] | melting point [°C] | Ki (rat VR1 [2]; [3]) [nM] |
| --- | --- | --- | --- | --- |
| C[C@H](C(=O)NC[C@@H](COC(=O)C(C)(C)C)Cc1ccc(C(C)(C)C)cc1)c1ccc(NS(C)(=O)=O)c(F)c1 [6-10, N-[(2S)-2-(4-t-Butylbenzyl)-3-(pivaloyloxy)propyl]-(2S)-2-[3-fluoro-4-(methylsulfonylamino)phenyl]propionamide] | 10.9 | 6.58 | 43 to 45 |  |
| Cc1ccc(C(C)CC(=O)NC(C)c2ccc(NS(C)(=O)=O)c(F)c2)cc1C (stereo not drawn) [24-8, N-{1-[3-Fluoro-4-(methylsulfonylamino)phenyl]ethyl}-3-(3,4-dimethylphenyl)butanamide] | 988 | 3530 | 152 to 154 |  |
| C[C@H](C(=O)NC[C@@H](COC(=O)C(C)(C)C)Cc1ccc(C(C)(C)C)cc1)c1ccc(NS(C)(=O)=O)c(Cl)c1 [6-14, N-[(2S)-2-(4-t-Butylbenzyl)-3-(pivaloyloxy)propyl]-(2S)-2-[3-chloro-4-(methylsulfonylamino)phenyl]propionamide] | 12.1 |  | 55 to 57 | 3.29 |
| CC(NC(=O)NCc1ccc(C(C)(C)C)cc1)c1ccc(NS(C)(=O)=O)c(F)c1 (stereo not drawn) [23-2, N-(4-t-Butylbenzyl)-N′-{1-[3-fluoro-4-(methylsulfonylamino)phenyl]ethyl}urea] | 298 | 447 | 152 to 154 |  |
| CC(C)(C)c1ccc(CNC(=S)NC(c2ccccc2)c2ccc(NS(C)(=O)=O)c(F)c2)cc1 (stereo not drawn) [20-14] | 861 |  | 191 | 100 |
| CC(C(=O)NCc1ccc(Cl)c(Cl)c1)c1ccc(NS(C)(=O)=O)c(F)c1 (stereo not drawn) [4-4, N-(3,4-Dichlorobenzyl)-2-[3-fluoro-4-(methylsulfonylamino)phenyl]propionamide] | 115 |  | 130 to 133 | 199 |
| Cc1ccc(CC(CNC(=O)C2(c3ccc(NS(C)(=O)=O)cc3)CC2)COC(=O)C(C)(C)C)cc1C (stereo not drawn) [12-1, N-[2-(3,4-Dimethylbenzyl)-3-pivaloyloxypropyl]-1-[4-(methylsulfonylamino)phenyl]cyclopropanecarboxamide] | 197 |  | 54 to 56 | 396 |
| COC(=O)c1cc(C(C)C(=O)NCc2ccc(C(C)(C)C)cc2)ccc1NS(C)(=O)=O (stereo not drawn) [1-59, N-(4-tert-Butylbenzyl)-2-[3-(methoxycarbonyl)-4-(methylsulfonylamino)phenyl]propionamide] | 951 |  | 142 to 144 | 1610 |
| CC(C(=O)NCc1ccc(-c2ccccc2)cc1)c1ccc(NS(C)(=O)=O)c(F)c1 (stereo not drawn) [4-11, N-(4-Biphenylmethyl)-2-[3-fluoro-4-(methylsulfonylamino)phenyl]propionamide] | 261 |  | 155 to 157 | 1750 |
| CC(C)c1ccc(CNC(=O)C(C)c2ccc(NS(C)(=O)=O)c(F)c2)cc1 (stereo not drawn) [4-8, N-(4-Isopropylbenzyl)-2-[3-fluoro-4-(methylsulfonylamino)phenyl]propionamide] | 143 |  | 137 to 139 | 127 |
| CC(C(=O)NCc1cccc2ccccc12)c1ccc(NS(C)(=O)=O)c(F)c1 (stereo not drawn) [4-12, N-(1-Naphthylmethyl)-2-[3-fluoro-4-(methylsulfonylamino)phenyl]propionamide] | 239 |  | 159 to 161 | 959 |
| CC(C)(C)c1ccc(CNC(=O)C(C)(C)c2ccc(NS(C)(=O)=O)c(F)c2)cc1 [9-8, N-(4-tert-Butylbenzyl)-2-[3-fluoro-4-(methylsulfonylamino)phenyl]-2-methylpropionamide] | 467 |  | 48 to 51 | 1070 |
| Cc1ccc(CCCNC(=O)C(C)(C)c2ccc(NS(C)(=O)=O)cc2)cc1C [9-4, N-[3-(3,4-Dimethylphenyl)propyl]-2-[4-(methylsulfonylamino)phenyl]-2-methylpropionamide] | 573 | 1700 | 138 to 139 |  |
| Cc1ccc(CC(CNC(=O)C2(c3ccc(NS(C)(=O)=O)c(F)c3)CC2)COC(=O)C(C)(C)C)cc1C (stereo not drawn) [12-2, N-[2-(3,4-Dimethylbenzyl)-3-pivaloyloxypropyl]-1-[3-fluoro-4-(methylsulfonylamino)phenyl]cyclopropanecarboxamide] | 567 |  | 55 to 56 | 1580 |
| COc1cc(C2(C(=O)NCc3ccc(C(C)(C)C)cc3)CC2)ccc1NS(C)(=O)=O [12-9, N-(4-tert-Butylbenzyl)-1-[3-methoxy-4-(methylsulfonylamino)phenyl]cyclopropanecarboxamide] | 2250 |  | 200 to 203 | 745 |
| CC(C(=O)NCc1ccc(C(C)(C)C)cc1)c1cc(F)c(NS(C)(=O)=O)c(F)c1 (stereo not drawn) [1-55, N-(4-tert-Butylbenzyl)-2-[3,5-difluoro-4-(methylsulfonylamino)phenyl]propionamide] | 7.38 |  | 80 to 81 | 19.9 |
| CC(NC(=S)NCc1ccc(C(C)(C)C)cc1)c1ccc(NS(C)(=O)=O)c(F)c1 (stereo not drawn) [15-2, N-(4-t-Butylbenzyl)-N′-{1-[3-fluoro-4-(methylsulfonylamino)phenyl]ethyl}thiourea] | 9.16 |  | 165 | 54 |
| CC(C(=O)NCc1ccc(C(C)(C)C)cc1)c1ccc(NS(C)(=O)=O)cc1 (stereo not drawn) [2-7, N-(4-tert-Butylbenzyl)-2-[4-(methylsulfonylamino)phenyl]propionamide] | 17.5 |  | 77 to 79 | 105 |
| C[C@@H](NC(=S)NC[C@H](COC(=O)C(C)(C)C)Cc1ccc(C(C)(C)C)cc1)c1ccc(NS(C)(=O)=O)cc1 [18-11, N-[(2R)-2-(4-tert-Butylbenzyl)-3-(pivaloyloxy)propyl]-N′-{(1R)-1-[4-(methylsulfonylamino)phenyl]ethyl}thiourea] | 53 | 15.7 | 85 to 87 |  |
| COc1cc(C(C)(C)C(=O)NCC(COC(=O)C(C)(C)C)Cc2ccc(C)c(C)c2)ccc1NS(C)(=O)=O (stereo not drawn) [9-3, N-[2-(3,4-Dimethylbenzyl)-3-pivaloyloxypropyl]-2-[3-methoxy-4-(methylsulfonylamino)phenyl]-2-methylpropionamide] | 133 |  | 100 to 103 | 152 |
| C[C@H](C(=O)NC[C@H](COC(=O)C(C)(C)C)Cc1ccccc1)c1ccc(NS(C)(=O)=O)c(F)c1 [6-5, N-[(2R)-2-Benzyl-3-(pivaloyloxy)propyl]-(2S)-2-[3-fluoro-4-(methylsulfonylamino)phenyl]propionamide] | 8.55 |  | 40 to 42 | 43.4 |
| CC(C(=O)NCc1ccc(Cl)cc1)c1ccc(NS(C)(=O)=O)c(F)c1 (stereo not drawn) [4-1, N-(4-Chlorobenzyl)-2-[3-fluoro-4-(methylsulfonylamino)phenyl]propionamide] | 367 |  | 129 to 130 | 1060 |
| CC(C(=O)NCc1ccc(C(C)(C)C)cc1)c1ccc(NS(C)(=O)=O)cc1F (stereo not drawn) [1-66, N-(4-tert-Butylbenzyl)-2-[2-fluoro-4-(methylsulfonylamino)phenyl]propionamide] | 120 |  | 111 to 113 | 358 |
| CC(C(=O)NCc1ccc(Cl)cc1)c1ccc(NS(C)(=O)=O)cc1 (stereo not drawn) [2-8, N-(4-Chlorobenzyl)-2-[4-(methylsulfonylamino)phenyl]propionamide] | 1090 | 3500 | 164 |  |
